For this assay, the system named is ATDC5 cells. Nature of the assay: Chondrogenesis activity assay in ATDC5 cells (collagen type II induction, immunofluorescence). In kind it is cell-based, mouse. The conditions noted are these: for EC50: collagen type II induction in ATDC5 cells, concentration reaching 50% of maximum induction; for Emax: maximum percent induction of collagen type II relative to internal reference compound at 10 μM, ATDC5 cells. In a few lines: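 Mouse ATDC5 cells in insulin (10 μg/ml)-containing DMEM/F12 differentiation medium with 5% FCS were exposed to compound, typically 40 nM–10 μM at 0.1% DMSO, for 4 days at 37 °C. Intracellular collagen type II was quantified by Alexa Fluor 488 immunostaining with high-content imaging, relative to DMSO and a 10 μM reference compound.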

Structures are written as SMILES.

Under “Mus musculus”, `CC(=O)OCCn1cc(-c2cc(Cl)cc3c4ccncc4n(CC(F)(F)F)c23)cn1` [Example 163, Acetic acid 2-(4-[6-chloro-9-(2,2,2-trifluoro-ethyl)-9H-pyrido[3,4-b]indol-8-yl]-pyrazol-1-yl)-ethyl ester] had an EC50 of 0.69 µM and a maximal response (Emax) of more than 80%.
The matching figures for `CCn1c2c(-c3cnn(C)c3)cc(Cl)cc2c2ccnc(C)c21` [Example 164, 6-Chloro-9-ethyl-1-methyl-8-(1-methyl-1H-pyrazol-4-yl)-9H-pyrido[3,4-b]indole]: 0.23 µM and more than 80%.
Take `Cn1ccc(-c2cc(Cl)cc3c4ccncc4n(CC(F)(F)F)c23)c1` [Example 165, 6-Chloro-8-(1-methyl-1H-pyrrol-3-yl)-9-(2,2,2-trifluoro-ethyl)-9H-pyrido[3,4-b]indole]: where the note is “Mus musculus”, the EC50 is more than 10 µM and the Emax is less than 20%.
`FC(F)(F)Cn1c2cnccc2c2cc(Cl)cc(-c3cnn(Cc4cccs4)c3)c21` [Example 166, 6-Chloro-8-(1-thiophen-2-ylmethyl-1H-pyrazol-4-yl)-9-(2,2,2-trifluoro-ethyl)-9H-pyrido[3,4-b]indole]: for the setting “Mus musculus”, the concentration giving a half-maximal response (EC50) came to 0.84 µM and the Emax is more than 80%.
For the setting “Mus musculus”, `FC(F)(F)Cn1c2cnccc2c2cc(Cl)cc(-c3cnn(Cc4ccccn4)c3)c21` [Example 168, 6-Chloro-8-(1-pyridin-2-ylmethyl-1H-pyrazol-4-yl)-9-(2,2,2-trifluoro-ethyl)-9H-pyrido[3,4-b]indole] came in with an EC50 of 0.99 µM and an Emax of more than 80%.
`COCCn1cc(-c2cc(Cl)cc3c4ccncc4n(CC(F)(F)F)c23)cn1` [Example 169, 6-Chloro-8-[1-(2-methoxy-ethyl)-1H-pyrazol-4-yl]-9-(2,2,2-trifluoro-ethyl)-9H-pyrido[3,4-b]indole]: a half-maximal response (EC50) required 1.1 µM. The half-maximal effective concentration (EC50) (Mus musculus) came out at 1.3 µM.
Consider `FC(F)(F)Cn1c2cnccc2c2cc(Cl)cc(-c3cnc(-c4ccccc4)s3)c21` [Example 170, 6-Chloro-8-(2-phenyl-thiazol-5-yl)-9-(2,2,2-trifluoro-ethyl)-9H-pyrido[3,4-b]indole], for which, where the note is “Mus musculus”, the half-maximal effective concentration (EC50) was more than 10 µM and the Emax was in the range of 20 to 50%.
For the setting “Mus musculus”, `COc1ccc(-c2cc(Cl)cc3c2[nH]c2c(C)nccc23)cc1OC` [Example 172, 6-Chloro-8-(3,4-dimethoxy-phenyl)-1-methyl-9H-pyrido[3,4-b]indole] displayed an EC50 of more than 10 µM and an Emax of 20 to 50%.
For `FC(F)(F)Cn1c2cnccc2c2cc(Cl)cc(-c3cnn(CC4CC4)c3)c21` [Example 173, 6-Chloro-8-(1-cyclopropylmethyl-1H-pyrazol-4-yl)-9-(2,2,2-trifluoro-ethyl)-9H-pyrido[3,4-b]indole], in that order: 1.9 µM and more than 80%.
The matching figures for `FC(F)(F)Cn1c2cnccc2c2cc(Cl)cc(-c3cnc(C4CC4)s3)c21` [Example 174, 6-Chloro-8-(2-cyclopropyl-thiazol-5-yl)-9-(2,2,2-trifluoro-ethyl)-9H-pyrido[3,4-b]indole]: 7.3 µM and 50 to 80%.
Turning to `COc1cc(OC)c(-c2cc(Cl)cc3c2[nH]c2c(C)nccc23)c(OC)c1` [Example 175, 6-Chloro-1-methyl-8-(2,4,6-trimethoxy-phenyl)-9H-pyrido[3,4-b]indole], where the note is “Mus musculus”, the EC50 was more than 10 µM and the Emax was less than 20%.
The matching figures for `Cc1cc(OC(C)C)ccc1-c1cc(Cl)cc2c1[nH]c1c(C)nccc12` [Example 176, 6-Chloro-8-(4-isopropoxy-2-methyl-phenyl)-1-methyl-9H-pyrido[3,4-b]indole]: more than 10 µM and 20 to 50%.
For `Cc1nccc2c1[nH]c1c(-c3ccc(OCc4ccccc4)cc3)cc(Cl)cc12` [Example 177, 8-(4-Benzyloxy-phenyl)-6-chloro-1-methyl-9H-pyrido[3,4-b]indole], for the setting “Mus musculus”, the EC50 was more than 10 µM and the Emax lay in the range of 20 to 50%.
For `COc1ccc(-c2cc(Cl)cc3c2[nH]c2c(C)nccc23)c(OC)c1OC` [Example 178, 6-Chloro-1-methyl-8-(2,3,4-trimethoxy-phenyl)-9H-pyrido[3,4-b]indole], in that order: more than 10 µM and 20 to 50%.
Where the note is “Mus musculus”, `Cc1nccc2c1[nH]c1c(-c3ccc4c(c3)CCO4)cc(Cl)cc12` [Example 179, 6-Chloro-8-(2,3-dihydro-benzofuran-5-yl)-1-methyl-9H-pyrido[3,4-b]indole] had an EC50 of more than 10 µM and an Emax of more than 80%.
For `COc1ccc(-c2cc(Cl)cc3c2[nH]c2c(C)nccc23)cc1O` [Example 180, 5-(6-Chloro-1-methyl-9H-pyrido[3,4-b]indol-8-yl)-2-methoxy-phenol], in that order: 0.33 µM and more than 80%.
`Cc1nccc2c1[nH]c1c(-c3ccc(OCC4CC4)cc3)cc(Cl)cc12` [Example 181, 6-Chloro-8-(4-cyclopropylmethoxy-phenyl)-1-methyl-9H-pyrido[3,4-b]indole]: under “Mus musculus”, the EC50 was found to be 2.1 µM and the maximal effect (Emax) was more than 80%.
For `Cc1nccc2c1[nH]c1c(-c3ccc(OCC4(C)COC4)cc3)cc(Cl)cc12` [Example 182, 6-Chloro-1-methyl-8-[4-(3-methyl-oxetan-3-ylmethoxy)-phenyl]-9H-pyrido[3,4-b]indole], in that order: 0.22 µM and more than 80%.
The matching figures for `Cc1nccc2c1[nH]c1c(-c3ccc(OC4CC4)cc3)cc(Cl)cc12` [Example 183, 6-Chloro-8-(4-cyclopropoxy-phenyl)-1-methyl-9H-pyrido[3,4-b]indole]: 2.3 µM and 50 to 80%.
As to `COc1ccc(-c2cc(Cl)cc3c2[nH]c2c(C)nccc23)cc1OCc1ccccc1` [Example 185, 8-(3-Benzyloxy-4-methoxy-phenyl)-6-chloro-1-methyl-9H-pyrido[3,4-b]indole], for the setting “Mus musculus”, the concentration giving a half-maximal response (EC50) was more than 10 µM and the Emax was in the range of 20 to 50%.
For `COc1ccc(-c2cc(Cl)cc3c2[nH]c2c(C)nccc23)cc1N` [Example 186, 5-(6-Chloro-1-methyl-9H-pyrido[3,4-b]indol-8-yl)-2-methoxy-phenylamine], in that order: 0.1 µM and more than 80%.
Under “Mus musculus”, `COc1ccc(-c2cc(Cl)cc3c2[nH]c2c(C)nccc23)c(C)c1C` [Example 187, 6-Chloro-8-(4-methoxy-2,3-dimethyl-phenyl)-1-methyl-9H-pyrido[3,4-b]indole] came in with an EC50 of 2.2 µM and a maximum response (Emax) of more than 80%.
Under “Mus musculus”, `COc1ccc(-c2cc(Br)cc3c2[nH]c2c(C)nccc23)cc1` [Example 188, 6-Bromo-8-(4-methoxy-phenyl)-1-methyl-9H-pyrido[3,4-b]indole] had an EC50 of 0.64 µM and a maximal response (Emax) of more than 80%.
For the compound `Cc1nccc2c1[nH]c1c(-c3ccc(Cl)cc3)cc(Cl)cc12` [Example 189, 6-Chloro-8-(4-chloro-phenyl)-1-methyl-9H-pyrido[3,4-b]indole], under “Mus musculus”, a half-maximal effect (EC50) was put at 0.5 µM and the Emax is more than 80%.
The matching figures for `Cc1nccc2c1[nH]c1c(-c3ccc(Cl)cc3Cl)cc(Cl)cc12` [Example 190, 6-Chloro-8-(2,4-dichloro-phenyl)-1-methyl-9H-pyrido[3,4-b]indole]: 0.72 µM and more than 80%.
With `COc1ccc(-c2cc(Cl)cc3c2[nH]c2cnccc23)cc1` [Example 191, 6-Chloro-8-(4-methoxy-phenyl)-9H-pyrido[3,4-b]indole], where the note is “Mus musculus”, the response was half-maximal at 0.55 µM (EC50) and the Emax is more than 80%.
